These results are taken from patent US8377991B2, “Trans-clomiphene for metabolic syndrome” (priority 2007, dated 2013).

For data set [1] the following is noted: in vivo.
Description: Adult, male, Baboons were given 1.5 mg/kg of Clomid (clomiphene citrate), Enclomid (trans-Clomiphene) or Zuclomid (cis-clomiphene) for 12 consecutive days. The samples analyzed were sera taken on the day of first treatment before being given test article (day 0), after 12 days of treatment (day 12) and 7 days after the last treatment (end or wash-out).
Another data set deals with total serum testosterone. Nature of the data set: Serum testosterone in male baboons given Clomid, Enclomid or Zuclomid. In kind it is in vivo. Particulars: for effect on total serum testosterone: 1.5 mg/kg for 12 days, vs baseline or day 0. The text has this:
There were significant increases in total serum testosterone in the group receiving Enclomid. There were no differences among groups in the baseline period or at day 0. There were also no differences among the three groups 7 days after treatment (the washout period). However, Enclomid produced higher levels of testosterone compared to Clomid and Zuclomid on day 6 (p=0.03 and p=0.00002 respectively) and compared to Zuclomid on day 12 (p=0.047). […] Enclomid was clearly better and more consistent than Clomid itself and Zuclomid was ineffective.

In a further data set the test system is serum LH and FSH. To be noted: hypogonadal male subjects, two week treatment.
For the next data set, the system named is total testosterone. To be noted: hypogonadal men; 50 mg dose.
The test system of a further data set is serum LH, FSH, PRL. Briefly: Body weight and serum LH, FSH, PRL in male baboons. In kind it is in vivo. Particulars: during the study. From the text: There were no changes in serum LH or FSH. […] There was also no change in body weight during the 12 day study.
A further data set has as its system fasting glucose levels. Particulars: patients with BMI>26; 50 mg dose; at the 3 and 4.5 month periods.
A short description of data set [2]: Androxal vs Androgel study: other clinical chemistry (DHT/TT, triglycerides) and side effects. It is filed as in vivo. To be noted: hypogonadal men, after two weeks of therapy; non-dose dependent.

Each structure is given as a SMILES string. Counter-ions that a name gives are not always drawn.

Description for fasting glucose levels: A placebo controlled study was conducted to determine the effects of orally administered Androxal™ (trans-clomiphene) and Androgel® on blood glucose levels.
The study enrolled hypogonadal men (testosterone less than 300 ng/dl) with a broad range of body mass indices (BMI). […] The placebo and Androxal™ doses were administered in a double blind fashion. The Androgel® cream was administered in an open label fashion. Fasting glucose levels were monitored in the patients immediately prior to treatment (baseline) and at regular intervals during the study.
Description for serum LH and FSH: (§1) A placebo controlled challenge study was conducted at the Advanced Biological Research, Inc. (ABR) Clinical Research Center in Hackensack, N.J. to compare orally administered Androxal™ (trans-clomiphene) to Androgel® in hypogonadal men.
(§2) Half of the men in each of the Androxal™ and placebo arms were randomized into cohorts that underwent in-clinic sessions on days 1 and 14 to determine pharmacokinetic parameters for Androxal™ as well as cyclical changes in testosterone. The placebo and Androxal™ doses were administered in a double blind fashion. The Androgel® cream was administered in an open label fashion. Half of the Androgel® patients underwent in-clinic sessions similar to the other patients in the study. Following the two week drug exposure, patients were followed for an additional seven to ten days to determine the status of their testosterone levels.
Description for total testosterone: as §1, §2

With `CCN(CC)CCOc1ccc(/C(=C(/Cl)c2ccccc2)c2ccccc2)cc1` [Zuclomid, cis-clomiphene], in data set [1], the “serum alkaline phosphatase (ALP)” value is listed as “not elevated” and the serum carbon dioxide result is reported as “higher than reference values on day 12”. Also, in data set [1] (1.5 mg/kg), the “effects on the red blood cell population” value is on record as “substantive effects on the red blood cell population” and the “increase in serum glucose” value is listed as “within the normal range”.

As for `CCN(CC)CCOc1ccc(C(=C(Cl)c2ccccc2)c2ccccc2)cc1` [Clomid, clomiphene citrate], the “effect on total serum testosterone” value with total serum testosterone is “more variable total testosterone levels on day 6 and later”. Moreover, in data set [1], the ALT/SGPT entry is “out of range low at the end of the study”; the “BUN and BUN/creatinine” value is “altered during the study”; the serum carbon dioxide entry was “higher than reference values on day 12”. The “increase in serum glucose” value in data set [1] (1.5 mg/kg) is reported as “within the normal range”.

`CCN(CC)CCOc1ccc(/C(=C(\Cl)c2ccccc2)c2ccccc2)cc1` [Enclomid, trans-clomiphene]: the “serum levels of FSH” value with serum LH and FSH was “boosts serum FSH”. Besides, the “effect on total serum testosterone” value with total serum testosterone was “significantly and statistically raised total serum testosterone on days 6 and 12”. For the same compound, the “total serum testosterone after cessation of treatment” value with total serum testosterone (day 12 to day 18 (washout)) is “significant drop in the level of total serum testosterone between day 12 and day 18”. In addition, in the data set on total testosterone, the “mean total testosterone after 15 days” value worked out at 589 ± 172 ng/dL. Further, the “serum prolactin (PRL)” value in the data set with serum LH, FSH, PRL is given as “decrease in serum prolactin (PRL)”. In the data set on fasting glucose levels, the “reduction in serum glucose from baseline” value was ~24 mg/dL. Besides, in data set [1], the “BUN and BUN/creatinine” value is recorded as “altered during the study”; the “percent of granulocytes in the blood” value is “strong effect of Enclomid on lowering the percent of granulocytes”; the platelet count result is given as “pushed the platelet count to its normal male level”; the “serum alkaline phosphatase (ALP)” value was “decreased in value”. In addition, in data set [1] (1.5 mg/kg), the counts of eosinophiles result was “raising the counts of lymphocytes and eosinophiles”; the “effects on the red blood cell population” value is “substantive effects on the red blood cell population”; the “increase in serum glucose” value was “no increases with treatment”. Moreover, in data set [2], the “reduction in triglycerides, average decrease” value is 19.1%.
